Assay results published in patent publication US8975398B2, “NAMPT inhibitors” (AbbVie Inc., priority 2012, dated 2015).

How the values were obtained:
[1] = biological target: NAMPT (human, recombinant, C-terminally His-tagged) (Homo sapiens, UniProt P43490); assay: Time-Resolved Fluorescence Resonance Energy Transfer (TR-FRET) Binding Assay of NAMPT; settings: 6.8 nM NAMPT, 200 nM probe, equilibrated 3 hours, absence of substrates
Procedure, shortened: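 Probe displacement measured by TR-FRET (Ex 337 nm; 520/495 nm ratio) after 3 h room-temperature equilibration of compound with 6.8 nM His-tagged human NAMPT, 1 nM Tb-anti-His antibody and 200 nM Oregon Green 488 nicotinamide-site probe, pH 7.5 HEPES buffer, 2% DMSO. Control-normalized data fit four-parameter logistic for IC50.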

[2] = biological target: NAMPT (Homo sapiens, UniProt P43490); assay: Time-Resolved Fluorescence Resonance Energy Transfer (TR-FRET) Binding Assay of NAMPT with PRPP; settings: 2 nM NAMPT, 2 nM probe, 200 uM PRPP and 2.5 mM ATP, equilibrated 16 hours
Procedure, shortened: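 Binding measured by TR-FRET after a 16-hour equilibration meant to permit enzymatic compound modification. Substrates present at 200 uM PRPP and 2.5 mM ATP, with 2 nM enzyme, 2 nM probe, 1 nM Tb-anti-His antibody and 2% DMSO final.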

Sequence of NAMPT (P43490 whole entry): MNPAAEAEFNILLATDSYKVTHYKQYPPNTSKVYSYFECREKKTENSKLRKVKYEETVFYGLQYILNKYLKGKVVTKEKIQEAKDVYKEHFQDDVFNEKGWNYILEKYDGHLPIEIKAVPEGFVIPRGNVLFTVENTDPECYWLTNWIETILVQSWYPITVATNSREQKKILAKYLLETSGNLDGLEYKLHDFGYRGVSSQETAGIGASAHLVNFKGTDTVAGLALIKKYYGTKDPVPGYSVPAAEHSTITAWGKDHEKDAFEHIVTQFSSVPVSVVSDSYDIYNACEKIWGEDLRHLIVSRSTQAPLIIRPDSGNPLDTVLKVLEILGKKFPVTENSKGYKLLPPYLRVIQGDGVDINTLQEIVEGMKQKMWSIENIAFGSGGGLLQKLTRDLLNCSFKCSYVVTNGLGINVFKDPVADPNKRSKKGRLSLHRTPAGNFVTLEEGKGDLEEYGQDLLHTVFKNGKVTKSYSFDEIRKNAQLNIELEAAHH
Sequence of NAMPT (human, recombinant, C-terminally His-tagged) (P43490 whole entry): as above

Row | IC50 [1] | IC50 [2] | SMILES
1 | 83.9 nM | 0.247 nM | O=C1CC[C@@H](C(=O)N2CCC(c3ccc(NC(=O)C4CN(c5cccnc5)C4)cc3)CC2)N1 [Example 114, N-{4-[1-(5-oxo-L-prolyl)piperidin-4-yl]phenyl}-1-(pyridin-3-yl)azetidine-3-carboxamide]
2 | 48.2 nM | 0.178 nM | CCOCCC(=O)N1CCC(c2ccc(NC(=O)C3CN(c4cccnc4)C3)cc2)CC1 [Example 115, N-{4-[1-(3-ethoxypropanoyl)piperidin-4-yl]phenyl}-1-(pyridin-3-yl)azetidine-3-carboxamide]
3 | 26.5 nM | 0.204 nM | CC(C)CCC(=O)N1CCC(c2ccc(NC(=O)C3CN(c4cccnc4)C3)cc2)CC1 [Example 116, N-{4-[1-(4-methylpentanoyl)piperidin-4-yl]phenyl}-1-(pyridin-3-yl)azetidine-3-carboxamide]
4 | 6.27 nM | 0.355 nM | CC1(C(=O)N2CCC(c3ccc(NC(=O)C4CN(c5cccnc5)C4)cc3)CC2)CCCCC1 [Example 117, N-(4-{1-[(1-methylcyclohexyl)carbonyl]piperidin-4-yl}phenyl)-1-(pyridin-3-yl)azetidine-3-carboxamide]
5 | 14.1 nM | 0.169 nM | CC(=O)N1CCC(c2ccc(NC(=O)C3CN(c4cccnc4)C3)cc2)CC1 [Example 118, N-[4-(1-acetylpiperidin-4-yl)phenyl]-1-(pyridin-3-yl)azetidine-3-carboxamide]
6 | 6.12 nM | 0.169 nM | O=C(Nc1ccc(C2CCN(C(=O)CC3CCCCC3)CC2)cc1)C1CN(c2cccnc2)C1 [Example 119, N-{4-[1-(cyclohexylacetyl)piperidin-4-yl]phenyl}-1-(pyridin-3-yl)azetidine-3-carboxamide]
7 | 11.6 nM | 0.294 nM | CC(=O)N[C@@H](CC(C)C)C(=O)N1CCC(c2ccc(NC(=O)C3CN(c4cccnc4)C3)cc2)CC1 [Example 120, N-{4-[1-(N-acetyl-L-leucyl)piperidin-4-yl]phenyl}-1-(pyridin-3-yl)azetidine-3-carboxamide]
8 | 9.94 nM | 0.169 nM | CCC(=O)N1CCC(c2ccc(NC(=O)C3CN(c4cccnc4)C3)cc2)CC1 [Example 121, N-[4-(1-propanoylpiperidin-4-yl)phenyl]-1-(pyridin-3-yl)azetidine-3-carboxamide]
9 | 7.94 nM | 0.169 nM | O=C(Nc1ccc(C2CCN(C(=O)CC(F)(F)F)CC2)cc1)C1CN(c2cccnc2)C1 [Example 122, 1-(pyridin-3-yl)-N-{4-[1-(3,3,3-trifluoropropanoyl)piperidin-4-yl]phenyl}azetidine-3-carboxamide]
10 | 65.6 nM | 0.282 nM | COCCOCC(=O)N1CCC(c2ccc(NC(=O)C3CN(c4cccnc4)C3)cc2)CC1 [Example 123, N-(4-{1-[(2-methoxyethoxy)acetyl]piperidin-4-yl}phenyl)-1-(pyridin-3-yl)azetidine-3-carboxamide]
11 | 123 nM | 0.278 nM | O=C(Nc1ccc(C2CCN(C(=O)CCN3CCOCC3)CC2)cc1)C1CN(c2cccnc2)C1 [Example 124, N-(4-{1-[3-(morpholin-4-yl)propanoyl]piperidin-4-yl}phenyl)-1-(pyridin-3-yl)azetidine-3-carboxamide]
12 | 15.4 nM | 0.518 nM | CC(C)(C)C(=O)N1CCC(c2ccc(NC(=O)C3CN(c4cccnc4)C3)cc2)CC1 [Example 125, N-{4-[1-(2,2-dimethylpropanoyl)piperidin-4-yl]phenyl}-1-(pyridin-3-yl)azetidine-3-carboxamide]
13 | 14.9 nM | 0.359 nM | Cc1ccc(C(=O)N2CCC(c3ccc(NC(=O)C4CN(c5cccnc5)C4)cc3)CC2)s1 [Example 126, N-(4-{1-[(5-methylthiophen-2-yl)carbonyl]piperidin-4-yl}phenyl)-1-(pyridin-3-yl)azetidine-3-carboxamide]
14 | 3.64 nM | 0.391 nM | O=C(Nc1ccc(C2CCN(C(=O)c3cccs3)CC2)cc1)C1CN(c2cccnc2)C1 [Example 127, 1-(pyridin-3-yl)-N-{4-[1-(thiophen-2-ylcarbonyl)piperidin-4-yl]phenyl}azetidine-3-carboxamide]
15 | 8.36 nM | 0.61 nM | Cn1cccc1C(=O)N1CCC(c2ccc(NC(=O)C3CN(c4cccnc4)C3)cc2)CC1 [Example 128, N-(4-{1-[(1-methyl-1H-pyrrol-2-yl)carbonyl]piperidin-4-yl}phenyl)-1-(pyridin-3-yl)azetidine-3-carboxamide]
16 | 4.49 nM | 0.367 nM | O=C(Nc1ccc(C2CCN(C(=O)c3ccco3)CC2)cc1)C1CN(c2cccnc2)C1 [Example 129, N-{4-[1-(furan-2-ylcarbonyl)piperidin-4-yl]phenyl}-1-(pyridin-3-yl)azetidine-3-carboxamide]

Row | IC50 [1] | IC50 [2] | SMILES
17 | 288 nM | 0.535 nM | O=C(Nc1ccc(C2CCN(C(=O)CCN3CCCCC3)CC2)cc1)C1CN(c2cccnc2)C1 [Example 130, N-(4-{1-[3-(piperidin-1-yl)propanoyl]piperidin-4-yl}phenyl)-1-(pyridin-3-yl)azetidine-3-carboxamide]
18 | 69.9 nM | 0.474 nM | CCOCC(=O)N1CCC(c2ccc(NC(=O)C3CN(c4cccnc4)C3)cc2)CC1 [Example 131, N-{4-[1-(ethoxyacetyl)piperidin-4-yl]phenyl}-1-(pyridin-3-yl)azetidine-3-carboxamide]
19 | 8.46 nM | 0.441 nM | CC(C)(C)CC(=O)N1CCC(c2ccc(NC(=O)C3CN(c4cccnc4)C3)cc2)CC1 [Example 132, N-{4-[1-(3,3-dimethylbutanoyl)piperidin-4-yl]phenyl}-1-(pyridin-3-yl)azetidine-3-carboxamide]
20 | 12 nM | 0.626 nM | CCC(C)(C)C(=O)N1CCC(c2ccc(NC(=O)C3CN(c4cccnc4)C3)cc2)CC1 [Example 133, N-{4-[1-(2,2-dimethylbutanoyl)piperidin-4-yl]phenyl}-1-(pyridin-3-yl)azetidine-3-carboxamide]
21 | 16.9 nM | 0.361 nM | CCCC(=O)N1CCC(c2ccc(NC(=O)C3CN(c4cccnc4)C3)cc2)CC1 [Example 134, N-[4-(1-butanoylpiperidin-4-yl)phenyl]-1-(pyridin-3-yl)azetidine-3-carboxamide]
22 | 33.9 nM | 0.293 nM | COCC(=O)N1CCC(c2ccc(NC(=O)C3CN(c4cccnc4)C3)cc2)CC1 [Example 135, N-{4-[1-(methoxyacetyl)piperidin-4-yl]phenyl}-1-(pyridin-3-yl)azetidine-3-carboxamide]
23 | 20.4 nM | 0.635 nM | O=C(Nc1ccc(C2CCN(C(=O)C3CCCCC3)CC2)cc1)C1CN(c2cccnc2)C1 [Example 136, N-{4-[1-(cyclohexylcarbonyl)piperidin-4-yl]phenyl}-1-(pyridin-3-yl)azetidine-3-carboxamide]
24 | 17.6 nM | 0.459 nM | CC(C)CC(=O)N1CCC(c2ccc(NC(=O)C3CN(c4cccnc4)C3)cc2)CC1 [Example 137, N-{4-[1-(3-methylbutanoyl)piperidin-4-yl]phenyl}-1-(pyridin-3-yl)azetidine-3-carboxamide]
25 | 21.8 nM | 0.445 nM | O=C(Nc1ccc(C2CCN(C(=O)C3CCCC3)CC2)cc1)C1CN(c2cccnc2)C1 [Example 138, N-{4-[1-(cyclopentylcarbonyl)piperidin-4-yl]phenyl}-1-(pyridin-3-yl)azetidine-3-carboxamide]
26 | 12 nM | 0.473 nM | CC(C)C(C)C(=O)N1CCC(c2ccc(NC(=O)C3CN(c4cccnc4)C3)cc2)CC1 (stereo not shown) [Example 139, N-{4-[1-(2,3-dimethylbutanoyl)piperidin-4-yl]phenyl}-1-(pyridin-3-yl)azetidine-3-carboxamide]
27 | 11 nM | 8.87 nM | CC(C)(C)CC(=O)N1CCC(c2ccc(NC(=O)C3CN(c4ccnnc4)C3)cc2)CC1 [Example 140, N-{4-[1-(3,3-dimethylbutanoyl)piperidin-4-yl]phenyl}-1-(pyridazin-4-yl)azetidine-3-carboxamide]
28 | 1240 nM | 75.2 nM | CC(C)(O)C(=O)N1CCC(c2ccc(NC(=O)[C@H]3CCN(c4ccnnc4)C3)cc2)CC1 [Example 141, (3S)—N-{4-[1-(2-hydroxy-2-methylpropanoyl)piperidin-4-yl]phenyl}-1-(pyridazin-4-yl)pyrrolidine-3-carboxamide]
29 | 1560 nM | 32.8 nM | O=C(Nc1ccc(C2CCN(C(=O)CC3CCCC3)CC2)cc1)[C@H]1CCN(c2ccnnc2)C1 [Example 142, (3S)—N-{4-[1-(cyclopentylacetyl)piperidin-4-yl]phenyl}-1-(pyridazin-4-yl)pyrrolidine-3-carboxamide]
30 | 17 nM | 31.1 nM | CC[C@H](C)C(=O)N1CCC(c2ccc(NC(=O)C3CN(c4ccnnc4)C3)cc2)CC1 [Example 143, N-(4-{1-[(2S)-2-methylbutanoyl]piperidin-4-yl}phenyl)-1-(pyridazin-4-yl)azetidine-3-carboxamide]
31 | 14.6 nM | 34.4 nM | O=C(Nc1ccc(C2CCN(C(=O)CC3CCCC3)CC2)cc1)C1CN(c2ccnnc2)C1 [Example 144, N-{4-[1-(cyclopentylacetyl)piperidin-4-yl]phenyl}-1-(pyridazin-4-yl)azetidine-3-carboxamide]
32 | 40.6 nM | 58.1 nM | O=C(Nc1ccc(C2CCN(C(=O)CC3CCOCC3)CC2)cc1)C1CN(c2ccnnc2)C1 [Example 145, 1-(pyridazin-4-yl)-N-{4-[1-(tetrahydro-2H-pyran-4-ylacetyl)piperidin-4-yl]phenyl}azetidine-3-carboxamide]
